Patent US7504371B2, “Organic catalyst with enhanced enzyme compatibility” (The Procter & Gamble Company, priority 2005, dated 2009)
Counter-ions that a name gives are not always drawn.

Assays:
Type in all cases: biochemical
[1] = tested on: Termamyl, Natalase, and Duramyl; test: Organic Catalyst/Enzyme Compatibility Test, average of the three amylases; conditions: ECV=(ECVter+ECVdur+ECVnat)/3; [Peracetic Acid]=5.0 ppm; [organic catalyst]=0.5 ppm
Description: (§1) Organic Catalyst/Enzyme Compatibility Test
(§2) The test described below uses an alpha amylase activity assay to measure the impact of organic catalysts on the enzyme.
(§3) Equipment. UV/V is spectrophotometer capable of measuring @ 415 nm, heated magnetic stirrer capable of 40° C., 5 mL Luer lock syringe and filters (Acrodisc 0.45 μm), pH meter, and balance (4-place analytical).
(§4) Reagents. […]
(§5) • a.) TRIS Assay Buffer. […] Mix 6 μL of filtered sample with 250 μL of amylase reagent in a cuvette and place the cuvette in a UV/VIS spectrophotometer and monitor change in absorbance at 415 nm. Determine length of time (tE) to the nearest second required to obtain an absorbance reading of 1.0 for each enzyme. […] Once sample and reagent are mixed, record the absorbance at tE for the respective enzyme. Designate such absorbance Ab. • c.) Analysis of sample with enzyme, peracetic acid, and organic catalyst. […] Once sample and reagent are mixed, record the absorbance at tE for the respective enzyme. Designate such absorbance Ac. […] The ECV for any specific enzyme is (Ac/Ab)×100 where Ab and Ac are the values determined in Steps 2.)b.) and 2.)c.), respectively, for that enzyme. • b.) The ECV for a given organic catalyst is the average of the individual ECV values for the three enzymes. […]

Natalase = test: Organic Catalyst/Enzyme Compatibility Test (alpha amylase activity assay), Natalase; conditions: (Ac/Ab)×100; [Peracetic Acid]=5.0 ppm; [organic catalyst]=0.5 ppm; 40° C.; detergent solution
Description: as §1, §2, §3, §4, §5

Duramyl = test: Organic Catalyst/Enzyme Compatibility Test (alpha amylase activity assay), Duramyl; conditions: (Ac/Ab)×100; [Peracetic Acid]=5.0 ppm; [organic catalyst]=0.5 ppm; 40° C.; detergent solution
Description: as §1, §2, §3, §4, §5

Termamyl = target: T1, Termamyl (Bacillus licheniformis, UniProt P06278); test: Organic Catalyst/Enzyme Compatibility Test (alpha amylase activity assay), Termamyl; conditions: (Ac/Ab)×100; [Peracetic Acid]=5.0 ppm; [organic catalyst]=0.5 ppm; 40° C.; detergent solution
T1 construct: purchased Novozymes, Denmark
Description: as §1, §2, §3, §4, §5

T1 sequence (P06278 30-512): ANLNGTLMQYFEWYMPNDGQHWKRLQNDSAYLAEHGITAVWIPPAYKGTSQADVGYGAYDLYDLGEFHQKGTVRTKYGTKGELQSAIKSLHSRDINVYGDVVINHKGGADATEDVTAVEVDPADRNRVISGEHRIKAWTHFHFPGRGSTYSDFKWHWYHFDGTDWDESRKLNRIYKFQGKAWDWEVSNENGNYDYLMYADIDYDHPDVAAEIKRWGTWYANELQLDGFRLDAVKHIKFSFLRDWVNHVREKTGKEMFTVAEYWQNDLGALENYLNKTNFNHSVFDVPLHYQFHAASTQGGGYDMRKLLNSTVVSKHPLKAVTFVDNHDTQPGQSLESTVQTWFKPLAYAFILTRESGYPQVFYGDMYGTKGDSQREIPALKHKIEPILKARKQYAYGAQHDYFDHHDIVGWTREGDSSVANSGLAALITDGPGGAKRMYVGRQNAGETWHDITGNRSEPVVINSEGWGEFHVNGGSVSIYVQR

CC(C)(C)OCC(C[N+]1=Cc2ccccc2CC1)OS(=O)(=O)[O-] (stereo not shown) [Entry 1, Sulfuric acid mono-[2-(3,4-dihydro-isoquinolin-2-yl)-1-((1,1-dimethylethoxy)methyl)ethyl] ester, internal salt] was tested, and the “Enzyme Compatibility Values ECV” value [1] was 65, the “Enzyme Compatibility Values ECVnat” value (Natalase) was 58 and the “Enzyme Compatibility Values ECVdur” value (Duramyl) was 86. The “Enzyme Compatibility Values ECVter” value (Termamyl) was 51.
